Assay [1] deals with NSCLC. As to conditions: standard chemotherapy plus EGFR inhibitor; cited from earlier work.
Assay [2] relates to human mammary carcinoma which expresses EGFR. The note with it: mouse, in vivo; cited from earlier work.
The subject of assay [3] is carcinoma which does not express the EGF receptor. The note with it: mouse, in vivo; cited from earlier work.
Assay [4] has as its system NSCLC. The note with it: phase II, previously treated NSCLC patients, 2004; cited from earlier work.
Assay [5] deals with NSCLC. The note with it: cancer no longer responding to chemotherapy; cited from earlier work.
The conditions of assay [6]: cited from earlier work.
For another assay, the system named is lung cancer cell lines. Description: Proliferation assay (Cyquant DNA content), adherent (2D) conditions. The format is cell-based. The note with it: adherent (2D) growth conditions.
The next assay concerns IGF1R. Description: Total IGF1R level in xenograft tumors (western blot / ELISA). The class given is in vivo, nu/nu mice. Here is the method: (§1) Methods: Total protein (500 microgram) from xenograft samples was isolated at the end of the efficacy study (4 weeks after indicated doses). Samples from 6 independent tumors were analyzed for east treatment. The proteins were western blotted and visualized as described previously (See FIG. 2).
A general note: Immunoblotting shows a protein as a band on a membrane.

Assay [7] concerns PI3K pathway (P-AKT, PS6K, PS6RP). Kind of assay: PI3K pathway western blot in xenograft tumors. As to conditions: following MK-0646 treatment, previous in vivo data. Further details: species or system nu/nu mice. Here is the method: as §1

The values below come from patent publication US20120058112A1, “ANTIBODIES” (priority 2009, published 2012).

Method for lung cancer cell lines: Summary: To test the functional effect of inhibiting both EGFR & IGFIR signaling, the growth inhibition under adherent (2D) and non adherent (3D) conditions were evaluated. […] In order to test the effect of this combination under 3D non-adherent conditions, the inventors developed an ultra low attachment plate based proliferation assay.
Methods: Cells (˜3×10̂3) were seeded in adherent or non-adherent (ultra-low attachment plates; Corning) 96 well plates. […] The media and drugs were slowly replaced every 3 days and at the end of the assay (as indicated) plates were harvested and DNA content was measured using Cyquant assays as described by the manufacturer. The intrinsic growth was calculated based on the increase in DNA content from Day 1 to the end of the assay.

With `COc1cc2ncnc(Nc3ccc(F)c(Cl)c3)c2cc1OCCCN1CCOCC1` [gefitinib], in the assay on NSCLC [1], the “outcome versus chemotherapy alone” value was “did no better”.
As for `O=CN/C=C/c1cc(O)ccc1O` [erbstatin], the figures for the tumor growth result in [2] and in assay [3] were “selectively attenuates the growth” and “without effect”, respectively.
As for `C#Cc1cccc(Nc2ncnc3cc(OCCOC)c(OCCOC)cc23)c1.Cl` [Erlotinib], in the assay on NSCLC [4], the “participants whose tumors responded to treatment” value is given as 12%. Further, the “outcome versus chemotherapy alone” value in the assay on NSCLC [1] is “did no better”. For the same compound, the survival versus placebo entry with NSCLC [5] is given as “about two months longer”. Also, the overall survival benefit entry in assay [6] (in vivo) is on record as “did not help patients live any longer overall”. The time to progression in assay [6] (placebo group 4.9 months) is reported as 5.1 months. In assay [6] (placebo group 10.5 months), the median survival is given as 10.6 months.
For the compound “MK-0646: humanized antibody that binds IGF-1R as well as the IR/IGF-1 hybrid receptor”, in the assay on lung cancer cell lines, the growth inhibition result is listed as “no significant growth inhibition”. Besides, the “total levels of IGF1R” value with IGF1R (compared to vehicle or Erlotinib alone, FIG. 6) is reported as “able to reduce the total levels of IGF1R”. Besides, in the assay on IGF1R (previous in vivo data, NCI-H2122 xenograft), the IGF1R receptor level entry is “down regulation”. Besides, the P13K pathway result in assay [7] is recorded as “inhibition was also observed”.
